Assay results from patent publication US20200254065A1, “LONG-ACTING GLP-2 ANALOGS” (OPKO Biologics Ltd., priority 2019, published 2020).
Read-outs that look alike come from different tables or passages of the source. Marks after values point to notes of the source that are not given here. Values belong to the molecule of their own block, whether it stands above or below them. Square brackets hold non-standard residues; d marks the D form. Ends that are not written are not given here. Peptide text beside a SMILES is read from it. Nle = CCCC[C@H](N)C(=O)O

Legend:
[1] = system: intestine epithelium (crypts plus villi); assay: Crypts plus villi length, histopathology of small intestine; assay type: in vivo, SD rats; settings: for Percent increase of Crypts plus Villi length over vehicle (FIG. 1): injected once at 2 mg/kg peptide dose, 6th day
Protocol: In addition to PEG30-FMS-V4 and PEG30-Fmoc-V4 that have been pharmacology evaluated by small intestinal weight evaluation (As shown in Example 5), four other reversible PEGylated variant 4 (“V4”) conjugates and two reversible linker-V4 conjugates were synthesized. All the above were injected to 6 normal SD rats/group once at 2 mg/kg (peptide dose), while on the 6th day, animals were scarified, and the small intestine was weighted followed by histopathology evaluation. […] Therefore, slices from three areas of the intestine (duodenum, jejunum and ilium) were stained with hematoxylin and eosin and at least 7 Crypts+Villi length/slice were measured. The averaged Villi+Crypt length of each treatment group (n=6) was compared to the vehicle group (negative control) and calculated as percentage increase over vehicle. […]
An additional study to evaluate the efficacy and the longevity of V4 and Cys-FMS-V4 was conducted (Study reference 15204) in which the animals were sacrificed on Days 6 (N=6), 10 (N=4) and 14 (N=4). This experiment measured the pharmacological response compared to the commercially approved SBS treatment drug Gattex. In addition, two new conjugates were tested by conjugating V4 to reduced OSu-linker and Cys-FMS-V4 purified from resin. The animals were injected with a single SC injection at Day 1 with 2 mg/kg peptide content of V4, Cys-FMS-V4, FMS-OSu-V4, Apraglutide and Glepaglutide while Gattex was SC injected daily at 2.5 mg/kg peptide content. […]

GLP-2 receptor [2] = target: T1, GLP-2 receptor (Homo sapiens, UniProt O95838); assay: GLP-2 receptor Cell Based Assay (CBA); settings: Table 8; average of 3 independent CBA
T1 sequence (O95838 1-553): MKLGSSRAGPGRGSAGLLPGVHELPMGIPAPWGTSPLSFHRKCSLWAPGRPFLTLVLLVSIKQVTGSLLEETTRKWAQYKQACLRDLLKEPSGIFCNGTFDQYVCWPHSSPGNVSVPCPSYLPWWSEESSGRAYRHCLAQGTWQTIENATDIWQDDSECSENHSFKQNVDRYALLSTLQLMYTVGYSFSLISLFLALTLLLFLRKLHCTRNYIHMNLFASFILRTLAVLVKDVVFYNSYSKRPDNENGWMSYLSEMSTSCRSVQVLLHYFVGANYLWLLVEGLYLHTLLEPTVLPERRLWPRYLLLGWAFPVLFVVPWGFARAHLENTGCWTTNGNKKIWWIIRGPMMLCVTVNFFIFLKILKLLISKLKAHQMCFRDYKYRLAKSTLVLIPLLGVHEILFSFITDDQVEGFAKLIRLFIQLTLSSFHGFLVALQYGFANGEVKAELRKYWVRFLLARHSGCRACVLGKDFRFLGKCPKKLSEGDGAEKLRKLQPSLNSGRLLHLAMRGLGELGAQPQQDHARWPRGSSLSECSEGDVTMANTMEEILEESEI
Protocol: Evaluation of in vitro binding affinity of the different peptides was assessed by using Cell Based Assay (CBA) in the presence of escalating doses of the different peptides.

GLP-2 receptor [3] = target: T2, GLP-2 receptor (UniProt O95838 1-553, limits assumed); assay: cell-based or functional assay
T2 sequence (looked up): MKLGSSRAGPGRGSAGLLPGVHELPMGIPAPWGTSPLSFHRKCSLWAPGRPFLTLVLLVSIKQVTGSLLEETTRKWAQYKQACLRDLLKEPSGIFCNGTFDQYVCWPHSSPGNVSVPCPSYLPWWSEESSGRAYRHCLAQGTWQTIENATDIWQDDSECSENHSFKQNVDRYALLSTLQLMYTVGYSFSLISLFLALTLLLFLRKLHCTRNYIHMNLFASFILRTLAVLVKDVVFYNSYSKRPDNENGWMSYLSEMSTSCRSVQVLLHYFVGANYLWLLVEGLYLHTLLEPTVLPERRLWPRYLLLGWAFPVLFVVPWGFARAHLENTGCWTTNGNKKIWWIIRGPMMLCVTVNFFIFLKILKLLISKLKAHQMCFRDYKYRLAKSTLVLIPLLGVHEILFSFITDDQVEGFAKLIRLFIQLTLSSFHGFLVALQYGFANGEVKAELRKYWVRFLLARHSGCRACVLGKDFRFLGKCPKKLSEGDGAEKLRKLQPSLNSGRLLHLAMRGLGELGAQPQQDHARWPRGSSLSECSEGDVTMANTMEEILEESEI

small intestine = assay: Intestine weight model in rats; assay type: in vivo, SD rats; settings: for Avg. small intestine weight (gr) / Small intestine weight increase over vehicle (%): normal SD rats, injected once at 2 mg/kg peptide dose, 6th day; for Small intestine weight increase over vehicle (%): MAL-FMS-V4 compared to Vehicle 2
Protocol: In the pharmacology study, the conjugates were injected subcutaneously twice, on days 1 and 3 at 1 mg/kg (peptide dose) and intestine weight was performed on day 6. In addition to the PEGylated conjugates, GLP-2-Gly2 was injected at the same dose and regimen for comparison. The average of the intestine weight of each group was compared to that of the vehicle group.
In a different study, several of the PEGylated teduglutide were injected as a single dose at 1 mg/kg and the intestine weight performed on day 6.
Pharmacology and pharmacokinetic studies were performed with the most promising GLP-2 variants to evaluate their efficacy and longevity, respectively. The intestine weight model in rats was conducted to evaluate efficacy, by measuring percent increase of the intestine weight of treated animals over the vehicle group. In this study, the peptides were injected twice, on days 1 and 3 at 1 mg/kg and the intestine weight was conducted on day 6.
PEG20-FMS-V6, PEG20-Fmoc-V6 and PEG40-FMS-V6 were injected once at 1 mg/kg dose on day 1, while group D was also injected twice on days 1 & 3 at 1 mg/kg. The intestine weight was performed on day 6.
Three different reversible PEGylated GLP-2 variants using mutated peptide #4 were injected at 2 mg/kg (peptide dose), once every 6 days for 12 days. On the 12th day the intestine was weighted and compared to the control group. PEG30-FMS-V4 was injected at 0.5 mg/kg as well to evaluate the efficacy dose range.
In addition to PEG30-FMS-V4 and PEG30-Fmoc-V4 that have been pharmacology evaluated by small intestinal weight evaluation (As shown in Example 5), four other reversible PEGylated variant 4 (“V4”) conjugates and two reversible linker-V4 conjugates were synthesized. All the above were injected to 6 normal SD rats/group once at 2 mg/kg (peptide dose), while on the 6th day, animals were scarified, and the small intestine was weighted followed by histopathology evaluation. […] Therefore, slices from three areas of the intestine (duodenum, jejunum and ilium) were stained with hematoxylin and eosin and at least 7 Crypts+Villi length/slice were measured. The averaged Villi+Crypt length of each treatment group (n=6) was compared to the vehicle group (negative control) and calculated as percentage increase over vehicle.
Additional studies were conducted to evaluate the efficacy of the V4 peptide and the reversible MAL-FMS-V4. The long acting effect of V4 and the conjugates were evaluated at Day 6 and Day 10 following treatment (Study reference 15203). All test groups (n=9) were injected SC with 2 mg/kg peptide content at Day 1. At Days 6 and 10, animals were sacrificed and the small intestine underwent histopathology evaluation (6 animals for Day 6, 3 animals for Day 10). FIGS. 12 and 13 show the pharmacology effect of different V4 conjugates and Apraglutide and Glepaglutide as measured by the percent increase of small intestine weight and crypts plus villi length over vehicle, respectively.
To further evaluate the pharmacology efficacy of V4 and Cys-FMS-V4, an experiment was performed to test their acute and prolonged effect on the small intestine (Study reference 15205). In addition, V4 and Cys-FMS-V4 were administrated as a single SC injection on Day 1 at 3 different doses (0.5, 2.0 or 8.0 mg/kg peptide content, 6 rats per group) to assess the dose dependence effect. The pharmacological effect on small intestine weight and villi plus crypts length was measured at Days 3, 7 and 14, and the results are presented in FIGS. 15 and 16. […] It should be noted that this acute response was higher for V4 compared to Cys-FMS-V4 at all 3 dose levels.

GLP-2 receptor [4] = target: T2, GLP-2 receptor; assay: cell-based or functional assay; remark: listed apart in the source
GLP-2 receptor [5] = target: GLP-2 receptor (UniProt O95838); assay: cell-based or functional assay
[6] = 2 mg/kg peptide dose once every 6 days for 12 days, weighed on 12th day

- EC50 Ratio to Teduglutide (GLP-2 receptor [2]): 2.9
- EC50 Ratio to Variant 4 (GLP-2 receptor [2]): 1.6
Molecule: CCCC[C@H](NC(=O)[C@H](CCC(=O)O)NC(=O)[C@H](CC(=O)O)NC(=O)[C@H](CO)NC(=O)[C@H](Cc1ccccc1)NC(=O)[C@H](CO)NC(=O)CNC(=O)[C@H](CC(=O)O)NC(=O)CNC(=O)[C@@H](N)Cc1c[nH]cn1)C(=O)N[C@H](Cc1ccccc1)C(=O)N[C@H](C(=O)N[C@H](C(=O)N[C@@H](CC(C)C)C(=O)N[C@@H](CC(=O)O)C(=O)N[C@@H](CC(C)C)C(=O)N[C@@H](CC(C)C)C(=O)N[C@@H](C)C(=O)N[C@@H](C)C(=O)N[C@@H](CCCNC(=N)N)C(=O)N[C@@H](CC(=O)O)C(=O)N[C@@H](Cc1ccccc1)C(=O)N[C@H](C(=O)N[C@@H](CC(N)=O)C(=O)N[C@@H](Cc1c[nH]c2ccccc12)C(=O)N[C@@H](CC(C)C)C(=O)N[C@H](C(=O)N[C@@H](CCC(N)=O)C(=O)N[C@H](C(=O)N[C@@H](CCCCN)C(=O)N[C@H](C(=O)N[C@H](C(=O)N[C@@H](CC(=O)O)C(N)=O)[C@@H](C)O)[C@@H](C)CC)[C@@H](C)O)[C@@H](C)CC)[C@@H](C)CC)[C@@H](C)CC)[C@@H](C)O [Variant 1, reference compound] (H-HGDGSFSDE[Nle][dF]TILDLLAARDFINWLIQTKITD-NH2)
- Crypts plus villi length percent increase over vehicle (FIG. 13) ([1]; Study 15203, single SC 2 mg/kg on Day 1, Days 6 and 10): moderate effect that was higher than Glepaglutide and the PEG30-FMS-V4 conjugate

- EC50 (nM) Average, GLP2-receptor CBA, 3 independent assays (GLP-2 receptor [3]): 0.8 nM
- EC50 Ratio to Teduglutide, CBA (GLP-2 receptor [3]): 1.8 fold
- EC50 Ratio to Teduglutide, GLP2-receptor CBA (GLP-2 receptor [3]): 1.3 fold
- EC50 Ratio to Variant 4, GLP2-receptor CBA (GLP-2 receptor [3]): 0.7 fold
- EC50 [nM], Cell Based Assay (CBA), cells overexpressing the GLP-2 receptor (GLP-2 receptor [3]): 10.1 nM
Molecule: GLP2 DiscoverX Kit (peptide)

Molecule: MAL-FMS-V4 (HGEGSFSDE[Nle]NTILDLLAARDFINWLIQTKITD-NH2; also: MAL-FMS conjugate, place not given here)
- Avg. small intestine weight (gr) (small intestine): 7.0 gr
- Percent increase of Crypts+Villi length over vehicle (FIG. 3) ([1]; Study 15201, 0.5 and 2 mg/kg peptide dose once, 6 days after injection): dose dependent pharmacology effect on the intestine epithelium
- Percent increase of Crypts plus Villi length over vehicle (FIG. 1) [1]: showed the most pronounce effect on the intestine epithelium

Molecule: PEG30-Fmoc-V4 (HGEGSFSDE[Nle]NTILDLLAARDFINWLIQTKITD-NH2; also: PEG30-Fmoc conjugate, place not given here)
- Average Intestine weight (gr) (small intestine; [6]): 7.8 gr
- Increase of intestine weight over vehicle (%) (small intestine; [6]): 29%
- Avg. small intestine weight (gr) (small intestine): 7.0 gr
- Small intestine weight increase over vehicle (%) (small intestine): 36.0** %
- Percent increase of Crypts plus Villi length over vehicle (FIG. 1) [1]: better effect on the intestine epithelium than the V4 peptide

Molecule: PEG30-MeOF-V4 (HGEGSFSDE[Nle]NTILDLLAARDFINWLIQTKITD-NH2; also: PEG30-MeOF conjugate, place not given here)
- Avg. small intestine weight (gr) (small intestine): 7.0 gr
- Small intestine weight increase over vehicle (%) (small intestine): 39.0** %
- Percent increase of Crypts plus Villi length over vehicle (FIG. 1) [1]: better effect on the intestine epithelium than the V4 peptide

- EC50 Ratio to Teduglutide, CBA (GLP-2 receptor [4]): 2.4 fold
- EC50 [nM], Cell Based Assay (CBA), cells overexpressing the GLP-2 receptor (GLP-2 receptor [4]): 13.6 nM
B1: GLP-2 Variant #5 (peptide)
peptide: H-HGEGSFSDE[Nle]NTILDYLAARDFINWLIQTKITD-NH2
SMILES: CCCC[C@H](NC(=O)[C@H](CCC(=O)O)NC(=O)[C@H](CC(=O)O)NC(=O)[C@H](CO)NC(=O)[C@H](Cc1ccccc1)NC(=O)[C@H](CO)NC(=O)CNC(=O)[C@H](CCC(=O)O)NC(=O)CNC(=O)[C@@H](N)Cc1c[nH]cn1)C(=O)N[C@@H](CC(N)=O)C(=O)N[C@H](C(=O)N[C@H](C(=O)N[C@@H](CC(C)C)C(=O)N[C@@H](CC(=O)O)C(=O)N[C@@H](Cc1ccc(O)cc1)C(=O)N[C@@H](CC(C)C)C(=O)N[C@@H](C)C(=O)N[C@@H](C)C(=O)N[C@@H](CCCNC(=N)N)C(=O)N[C@@H](CC(=O)O)C(=O)N[C@@H](Cc1ccccc1)C(=O)N[C@H](C(=O)N[C@@H](CC(N)=O)C(=O)N[C@@H](Cc1c[nH]c2ccccc12)C(=O)N[C@@H](CC(C)C)C(=O)N[C@H](C(=O)N[C@@H](CCC(N)=O)C(=O)N[C@H](C(=O)N[C@@H](CCCCN)C(=O)N[C@H](C(=O)N[C@H](C(=O)N[C@@H](CC(=O)O)C(N)=O)[C@@H](C)O)[C@@H](C)CC)[C@@H](C)O)[C@@H](C)CC)[C@@H](C)CC)[C@@H](C)CC)[C@@H](C)O

- EC50 (nM) Average, GLP2-receptor CBA, 3 independent assays (GLP-2 receptor [5]): 5.4 nM
- EC50 Ratio to Teduglutide, GLP2-receptor CBA (GLP-2 receptor [5]): 9.4 fold
- EC50 Ratio to Variant 4, GLP2-receptor CBA (GLP-2 receptor [5]): 5.3 fold
Molecule: HGEGTFSSELATILDALAARDFIAWLIATKITDKKKKKK-NH2 [Glepaglutide (V10)]

- EC50 (nM) Average, GLP2-receptor CBA, 3 independent assays (GLP-2 receptor [5]): 1.7 nM
- EC50 Ratio to Teduglutide, GLP2-receptor CBA (GLP-2 receptor [5]): 2.9 fold
- EC50 Ratio to Variant 4, GLP2-receptor CBA (GLP-2 receptor [5]): 1.6 fold
Molecule: HGDGSFSDE[Nle][dF]TILDLLAARDFINWLIQTKITD-NH2 [Apraglutide (V1)]
